Assays:
Androgen receptor [1] = target: T1, Androgen receptor (Homo sapiens, UniProt P10275)
T1 sequence (P10275 whole entry): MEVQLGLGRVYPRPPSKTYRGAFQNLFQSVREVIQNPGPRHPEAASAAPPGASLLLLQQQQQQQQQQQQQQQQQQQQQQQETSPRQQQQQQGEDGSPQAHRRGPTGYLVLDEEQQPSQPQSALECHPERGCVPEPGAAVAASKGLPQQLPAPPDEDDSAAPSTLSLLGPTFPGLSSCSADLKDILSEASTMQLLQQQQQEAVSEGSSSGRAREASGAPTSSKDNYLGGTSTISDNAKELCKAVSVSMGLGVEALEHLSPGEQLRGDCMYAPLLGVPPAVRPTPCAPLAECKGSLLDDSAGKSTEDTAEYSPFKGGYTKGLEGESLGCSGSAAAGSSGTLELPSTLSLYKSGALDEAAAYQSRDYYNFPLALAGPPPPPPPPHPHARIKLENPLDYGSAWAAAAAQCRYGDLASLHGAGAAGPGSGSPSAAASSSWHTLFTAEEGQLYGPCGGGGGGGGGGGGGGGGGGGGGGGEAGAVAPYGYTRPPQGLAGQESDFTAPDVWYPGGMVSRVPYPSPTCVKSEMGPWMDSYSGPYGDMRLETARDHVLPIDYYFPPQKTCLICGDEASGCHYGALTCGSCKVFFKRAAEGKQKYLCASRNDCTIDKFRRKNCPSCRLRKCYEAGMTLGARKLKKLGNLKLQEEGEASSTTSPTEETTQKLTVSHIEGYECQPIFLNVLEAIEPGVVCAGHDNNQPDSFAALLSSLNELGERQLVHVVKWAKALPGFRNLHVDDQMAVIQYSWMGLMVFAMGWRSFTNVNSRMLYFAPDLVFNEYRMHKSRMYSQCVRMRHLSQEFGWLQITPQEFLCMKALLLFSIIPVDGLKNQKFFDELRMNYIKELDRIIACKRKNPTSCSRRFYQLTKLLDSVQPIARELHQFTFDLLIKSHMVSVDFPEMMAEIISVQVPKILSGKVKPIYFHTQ
Description: Agonist activity at human androgen receptor african green monkey CV1 cells by cotransfection assay

Androgen receptor [2] = target: T1, Androgen receptor; remark: listed apart in the source
Description: Antagonist activity at human androgen receptor african green monkey CV1 cells by cotransfection assay

Androgen receptor [3] = target: T1, Androgen receptor; remark: listed apart in the source
Description: Binding affinity to human androgen receptor expressed in monkey COS7 cells by whole cell binding assay

Androgen receptor [4] = target: T1, Androgen receptor; remark: listed apart in the source
Description: Activity at androgen receptor in human Saos2 cells assessed as IL6 repression

SMILES | EC50 (Androgen receptor [1]) | IC50 (Androgen receptor [2]) | Ki (Androgen receptor [3]) | IC50 (Androgen receptor [4])
COc1c(C(=O)OC(F)(F)F)ccc2oc(=O)c3c(ccc4[nH]c(=O)cc(C)c43)c12 | 43 nM | > 10000 nM | 10 nM | 0.2 nM
CCOc1ccc2oc(=O)c3c(ccc4[nH]c(=O)cc(C)c43)c2c1OC | 18 nM | > 10000 nM | 62 nM | 10 nM
Cc1cc(=O)[nH]c2ccc3c4cc(F)ccc4oc(=O)c3c12 | 240 nM | 27 nM | 1000 nM | 101 nM
COc1cccc2oc(=O)c3c(ccc4[nH]c(=O)cc(C)c43)c12 | 11 nM | > 10000 nM | 28 nM | 21 nM
COc1cccc2c1-c1ccc3[nH]c(=O)cc(C(F)(F)F)c3c1OC2 | > 10000 nM | 78 nM | 27 nM | 477 nM
COc1cccc2c1-c1ccc3[nH]c(=O)cc(C)c3c1CO2 | 50 nM | > 10000 nM | 59 nM | 12 nM
COc1cccc2c(=O)oc3c(ccc4[nH]c(=O)cc(C(F)(F)F)c43)c12 | 90 nM | > 10000 nM | 50 nM | 89 nM
COc1cccc2c1-c1ccc3[nH]c(=O)cc(C)c3c1C(O)O2 (stereo not given) | 208 nM | > 10000 nM | 1300 nM | 50 nM
COc1c(OC(C)C)ccc2oc(=O)c3c(ccc4[nH]c(=O)cc(C)c43)c12 | 23 nM | 20 nM | 21 nM | 2.8 nM
COc1c(O)ccc2oc(=O)c3c(ccc4[nH]c(=O)cc(C)c43)c12 | 21 nM | > 10000 nM | 4 nM | 0.2 nM
COc1c(O)ccc2c1-c1ccc3[nH]c(=O)cc(C)c3c1CO2 | 306 nM | 19 nM | 5 nM | 1.2 nM
O=c1cc(C(F)(F)F)c2c3c(ccc2[nH]1)-c1c(O)cccc1OC3 | 16 nM | > 10000 nM | 1.3 nM | 1.1 nM
Cc1cc(=O)[nH]c2ccc3c4c(C(=O)OC(C)(C)C)cccc4oc(=O)c3c12 | 1.1 nM | > 10000 nM | 8.7 nM | 1.9 nM
C=CCC1Oc2cccc(OC)c2-c2ccc3[nH]c(=O)cc(C)c3c21 (stereo not given) | > 10000 nM | 144 nM | 1590 nM | 
COc1ccc2oc(=O)c3c(ccc4[nH]c(=O)cc(C)c43)c2c1 | > 10000 nM | 48 nM | 610 nM | 0.8 nM
COc1cccc2c1-c1ccc3[nH]c(=O)cc(C(F)(F)F)c3c1CO2 | 20 nM | > 10000 nM | 11 nM | 14 nM
COc1cccc2c1-c1ccc3[nH]c(=O)cc(C)c3c1C(C)O2 (stereo not given) | > 10000 nM | 62 nM | 250 nM | 
COc1cccc2c1-c1ccc3[nH]c(=O)cc(C)c3c1C(OC)O2 (stereo not given) | 184 nM | 19 nM | 2350 nM | 112 nM
